According to ChEMBL document CHEMBL3988442, “University of Dundee, Small-Polar-MMV Screening Library” (2021):
Values joined by “and” are separate entries in the source; they are usually repeats but may differ in a detail not shown here. Equal values may be shown once.

What was measured:
[1] = target: T1, Histidine--tRNA ligase (Leishmania infantum, UniProt A4I591); assay: Leishmania infantum Histidine tRNA synthetase (LdHisRS); assay type: functional
T1 sequence (A4I591 whole entry): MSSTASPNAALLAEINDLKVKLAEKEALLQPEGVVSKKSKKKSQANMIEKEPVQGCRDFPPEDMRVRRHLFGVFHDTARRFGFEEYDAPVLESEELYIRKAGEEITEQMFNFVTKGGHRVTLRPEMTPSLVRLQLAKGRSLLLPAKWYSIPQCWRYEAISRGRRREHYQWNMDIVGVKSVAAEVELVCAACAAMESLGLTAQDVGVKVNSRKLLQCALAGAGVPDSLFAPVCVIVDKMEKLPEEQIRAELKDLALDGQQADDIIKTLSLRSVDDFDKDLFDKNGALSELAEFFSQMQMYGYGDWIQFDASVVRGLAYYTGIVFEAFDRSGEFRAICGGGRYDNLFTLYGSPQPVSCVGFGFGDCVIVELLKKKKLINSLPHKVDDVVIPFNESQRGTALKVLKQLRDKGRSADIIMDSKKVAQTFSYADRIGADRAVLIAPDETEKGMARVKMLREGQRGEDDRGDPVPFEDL

[2] = target: T2, Histidine--tRNA ligase (Trypanosoma cruzi (strain CL Brener), UniProt Q4DA54); assay: Trypanosoma cruzi histidyl tRNA synthetase (Tc-HisRS); assay type: functional
T2 sequence (Q4DA54 whole entry): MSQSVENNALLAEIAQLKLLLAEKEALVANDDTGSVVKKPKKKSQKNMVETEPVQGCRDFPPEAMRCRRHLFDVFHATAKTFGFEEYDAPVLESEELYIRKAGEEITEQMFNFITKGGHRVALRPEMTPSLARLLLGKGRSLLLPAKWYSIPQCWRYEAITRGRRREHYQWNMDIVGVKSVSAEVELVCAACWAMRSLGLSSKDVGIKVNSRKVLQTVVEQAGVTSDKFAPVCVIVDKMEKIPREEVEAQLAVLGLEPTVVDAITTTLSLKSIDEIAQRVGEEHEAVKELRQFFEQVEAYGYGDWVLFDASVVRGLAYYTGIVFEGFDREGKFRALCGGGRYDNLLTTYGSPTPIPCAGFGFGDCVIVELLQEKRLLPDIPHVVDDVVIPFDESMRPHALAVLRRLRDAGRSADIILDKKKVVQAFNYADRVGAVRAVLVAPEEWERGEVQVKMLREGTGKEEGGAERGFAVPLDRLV

[3] = target: Lysine--tRNA ligase (Plasmodium falciparum (isolate 3D7), UniProt Q8IDJ8); assay: Pf-KRS-1 (Lysyl-RNA Synthetase-1, KRS-1, cytosolic KRS) from Plasmodium falciparum. Inhibitor assay, 384 well plate, luminescence read.; assay type: functional
[4] = target: Polyketide synthase Pks13 (Mycobacterium tuberculosis (strain ATCC 25618 / H37Rv), UniProt I6X8D2); assay: Mycobacterium tuberculosis Polyketide synthase 13 Thioesterase (PKS13); assay type: functional
[5] = target: T3, Coenzyme A biosynthesis bifunctional protein CoaBC (Mycobacterium tuberculosis (strain ATCC 25618 / H37Rv), UniProt P9WNZ1); assay: Biomol Green assay for MtCoaBC inhibitor, OD650 read; assay type: functional
T3 sequence (P9WNZ1 whole entry): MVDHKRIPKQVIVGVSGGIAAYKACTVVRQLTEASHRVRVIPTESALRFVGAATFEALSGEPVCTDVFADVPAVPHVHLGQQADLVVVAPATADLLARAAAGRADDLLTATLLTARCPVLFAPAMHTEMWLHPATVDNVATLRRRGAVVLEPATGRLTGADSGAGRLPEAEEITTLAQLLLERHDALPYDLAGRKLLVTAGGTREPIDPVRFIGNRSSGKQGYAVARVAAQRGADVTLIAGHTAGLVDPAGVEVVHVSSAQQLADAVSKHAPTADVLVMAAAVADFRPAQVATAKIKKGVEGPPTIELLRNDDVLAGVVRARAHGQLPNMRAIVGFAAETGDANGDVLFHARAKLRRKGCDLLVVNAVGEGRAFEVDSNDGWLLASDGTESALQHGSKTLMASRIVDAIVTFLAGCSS

[6] = tested on: Plasmodium falciparum; assay: Calibr Malaria Delayed Death Assay SOP; assay type: functional, organism-based; settings: for IC50: Plasmodium falciparum
[7] = microbe, parasite or virus in culture; settings: Mycobacterium tuberculosis, 72 h, read-out: pIC50 (converted)
[8] = microbe, parasite or virus in culture; settings: Mycobacterium tuberculosis, 96 h, read-out: pIC50 (converted)
[9] = tested on: Mycobacterium tuberculosis; assay: Cornell M. t heat shock assay; assay type: functional, organism-based; settings: Mycobacterium tuberculosis
[10] = target: ClpP1P2 (Mycobacterium tuberculosis (strain ATCC 25618 / H37Rv), UniProt P9WPC3+P9WPC5); assay: in vitro assay to detect presence of AMC directly proportional to the activity of ClpP1P2. GHDDI collaboration.; assay type: functional
Sequence of ClpP1P2 (P9WPC5 whole entry): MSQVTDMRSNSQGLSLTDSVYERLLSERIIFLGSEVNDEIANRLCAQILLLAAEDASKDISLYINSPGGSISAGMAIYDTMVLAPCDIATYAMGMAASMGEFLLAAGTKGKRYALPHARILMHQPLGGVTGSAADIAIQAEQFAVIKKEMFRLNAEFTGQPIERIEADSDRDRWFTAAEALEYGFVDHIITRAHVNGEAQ
Sequence of ClpP1P2 (P9WPC3 whole entry): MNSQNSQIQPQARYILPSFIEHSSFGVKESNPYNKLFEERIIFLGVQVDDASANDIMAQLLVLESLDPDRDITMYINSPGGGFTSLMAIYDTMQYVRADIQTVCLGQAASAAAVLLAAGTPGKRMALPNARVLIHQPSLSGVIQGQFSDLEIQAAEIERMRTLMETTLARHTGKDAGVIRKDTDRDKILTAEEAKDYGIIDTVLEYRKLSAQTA

Sequence of Lysine--tRNA ligase (Q8IDJ8 whole entry): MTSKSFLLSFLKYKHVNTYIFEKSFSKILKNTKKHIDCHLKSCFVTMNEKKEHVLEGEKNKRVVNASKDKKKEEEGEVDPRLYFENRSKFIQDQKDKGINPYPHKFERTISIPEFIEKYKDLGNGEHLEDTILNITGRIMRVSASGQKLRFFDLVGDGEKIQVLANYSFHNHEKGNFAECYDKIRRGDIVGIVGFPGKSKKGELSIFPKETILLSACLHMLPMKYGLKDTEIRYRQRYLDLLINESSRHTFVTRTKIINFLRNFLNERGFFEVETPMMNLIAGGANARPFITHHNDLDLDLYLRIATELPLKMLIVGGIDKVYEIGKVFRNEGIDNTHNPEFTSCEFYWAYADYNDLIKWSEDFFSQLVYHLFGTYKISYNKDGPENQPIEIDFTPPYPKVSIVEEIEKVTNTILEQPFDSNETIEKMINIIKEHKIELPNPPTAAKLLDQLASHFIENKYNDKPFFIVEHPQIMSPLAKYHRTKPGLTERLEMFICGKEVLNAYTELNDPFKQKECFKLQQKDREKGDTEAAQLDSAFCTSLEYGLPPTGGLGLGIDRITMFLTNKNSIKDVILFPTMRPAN
Sequence of Polyketide synthase Pks13 (I6X8D2 whole entry): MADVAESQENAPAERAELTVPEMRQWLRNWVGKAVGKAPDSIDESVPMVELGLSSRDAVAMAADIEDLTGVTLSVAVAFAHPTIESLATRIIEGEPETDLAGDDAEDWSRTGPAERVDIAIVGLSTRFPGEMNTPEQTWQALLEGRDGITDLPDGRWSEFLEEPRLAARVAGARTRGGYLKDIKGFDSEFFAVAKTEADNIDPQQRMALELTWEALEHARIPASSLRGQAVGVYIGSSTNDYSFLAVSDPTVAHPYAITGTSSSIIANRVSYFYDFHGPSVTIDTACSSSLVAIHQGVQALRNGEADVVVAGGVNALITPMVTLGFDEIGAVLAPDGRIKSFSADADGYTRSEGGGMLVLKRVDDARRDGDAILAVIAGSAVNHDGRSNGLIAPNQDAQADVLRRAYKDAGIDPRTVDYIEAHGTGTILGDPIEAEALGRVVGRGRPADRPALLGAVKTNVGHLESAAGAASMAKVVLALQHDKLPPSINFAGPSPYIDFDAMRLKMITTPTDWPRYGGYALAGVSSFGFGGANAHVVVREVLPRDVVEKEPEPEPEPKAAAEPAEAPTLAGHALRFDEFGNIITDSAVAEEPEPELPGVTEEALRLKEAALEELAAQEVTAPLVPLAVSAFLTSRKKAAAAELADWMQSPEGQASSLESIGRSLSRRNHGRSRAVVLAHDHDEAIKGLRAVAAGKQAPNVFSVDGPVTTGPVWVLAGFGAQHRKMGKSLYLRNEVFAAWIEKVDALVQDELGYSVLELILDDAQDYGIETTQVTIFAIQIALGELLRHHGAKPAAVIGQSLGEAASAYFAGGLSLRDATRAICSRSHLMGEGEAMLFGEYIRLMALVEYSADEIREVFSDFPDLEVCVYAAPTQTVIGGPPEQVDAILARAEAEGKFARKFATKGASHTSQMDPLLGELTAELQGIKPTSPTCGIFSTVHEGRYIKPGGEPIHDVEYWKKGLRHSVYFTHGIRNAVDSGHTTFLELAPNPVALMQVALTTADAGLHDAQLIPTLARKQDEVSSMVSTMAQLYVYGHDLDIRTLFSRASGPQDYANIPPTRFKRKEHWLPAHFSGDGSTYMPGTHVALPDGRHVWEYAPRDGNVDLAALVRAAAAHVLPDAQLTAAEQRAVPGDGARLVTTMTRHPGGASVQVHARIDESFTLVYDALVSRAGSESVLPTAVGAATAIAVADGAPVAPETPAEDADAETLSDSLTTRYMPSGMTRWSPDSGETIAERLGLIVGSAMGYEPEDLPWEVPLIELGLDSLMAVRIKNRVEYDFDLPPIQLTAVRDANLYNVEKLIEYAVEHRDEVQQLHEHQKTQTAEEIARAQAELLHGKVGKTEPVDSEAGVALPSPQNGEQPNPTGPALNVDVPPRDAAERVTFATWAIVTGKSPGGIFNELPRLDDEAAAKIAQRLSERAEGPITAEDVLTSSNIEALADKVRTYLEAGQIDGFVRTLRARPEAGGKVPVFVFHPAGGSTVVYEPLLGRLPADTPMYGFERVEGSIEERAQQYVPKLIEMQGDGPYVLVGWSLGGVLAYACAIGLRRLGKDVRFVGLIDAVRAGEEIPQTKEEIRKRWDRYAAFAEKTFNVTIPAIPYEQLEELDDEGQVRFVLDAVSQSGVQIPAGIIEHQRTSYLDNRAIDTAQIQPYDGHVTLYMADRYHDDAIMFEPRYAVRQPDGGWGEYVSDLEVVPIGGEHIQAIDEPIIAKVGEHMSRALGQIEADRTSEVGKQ

Row | SMILES | IC50 [1] | IC50 [2] | other results
1 | Cc1cc(=O)n(C)cc1NC(=O)Cc1cccc(Cl)c1 | 5 µM and 6.56 µM | 4.77 µM | IC50 [3]: > 50.1 µM
2 | NC1CCN(C2CCN(c3ccc(-c4ccco4)cc3)CC2)CC1 | 23 µM and 22.9 µM | 34.3 µM and 40.4 µM | –
3 | CCCn1cc(NC(=O)c2ccc(S(C)(=O)=O)cc2)ccc1=O | 1.71 µM and 0.847 µM and 0.944 µM and 1.37 µM | 21.5 µM and 19.6 µM | IC50 [3]: > 50.1 µM
4 | Cc1cnc(N2CCC3(CCN(CC4CC4)C3=O)CC2)nc1 | – | > 100 µM | IC50 [4]: > 100 µM
5 | c1ccc(N2CCCC3(COCCN(c4nccs4)C3)C2)nc1 (configuration not stated) | – | 73.9 µM and 71.8 µM | IC50 [5]: > 30.2 µM
6 | COc1cccn(CC(=O)N2CCCC3(CCCO3)CC2)c1=O (configuration not stated) | > 100 µM | > 100 µM | –
7 | NCC1Cc2cc(-c3nccc(N4CCC(O)CC4)n3)cc(Cl)c2O1 (configuration not stated) | 20.9 µM and 21 µM | 48.1 µM and 22.3 µM | IC50 [5]: > 30.2 µM; pIC50 [6]: 6.303; IC50 [6]: 545 nM
8 | Cn1cc(NC(=O)N2CCCC2c2ccccn2)ccc1=O (configuration not stated) | 2.71 µM and 1.57 µM and 2.82 µM and 1.51 µM | 9.32 µM and 9.24 µM | IC50 [3]: > 50.1 µM
9 | CC(C)(C)c1nc(CNC2CCCN(c3cccnn3)C2)no1 (configuration not stated) | – | 39.6 µM and 34.1 µM | IC50 [7]: > 50.1 µM; IC50 [8]: > 50.1 µM
10 | Cc1cc(C)n(CC2CCCN2Cc2nc(N)c3ccccc3n2)n1 (configuration not stated) | – | > 100 µM | IC50 [9]: > 100 µM
11 | Cc1nc(C)n(CC2CCCN2Cc2nc(C)c3ccccc3n2)n1 (configuration not stated) | 31 µM and 34.3 µM | 30.1 µM and 20 µM | –
12 | CNc1cc(-c2ccc(COCCN)cc2)c2cc[nH]c2n1 | – | 38.8 µM and 97 µM | IC50 [10]: > 100 µM
13 | c1ccc(-c2noc(CNC3CCCN(c4cccnn4)C3)n2)nc1 (configuration not stated) | 34.2 µM and 44.7 µM | > 100 µM | –
14 | CN(Cc1ccsc1)C(=O)Nc1ccc(=O)n(C)c1 | 4.2 µM and 4.05 µM | 4.99 µM and 3.42 µM | IC50 [3]: > 50.1 µM
15 | Nc1nccc(C2CN(Cc3ccc(-c4ccccc4C(=O)O)o3)C2)n1 | 25.3 µM and 25.4 µM | 32.2 µM and 50.5 µM | –
16 | Cc1nc(CN(C)CC2CCCN2c2cccnn2)nc2ccccc12 (configuration not stated) | 11.8 µM and 14.8 µM | 30.3 µM and 27.2 µM | IC50 [7]: 10.8 µM; IC50 [8]: > 50.1 µM
17 | Cc1ccc(N2CCC3(CC2)COCCN(c2nccs2)C3)nn1 | 33.4 µM and 28.7 µM | 96.2 µM and 98.9 µM | –
18 | O=C(NCc1cnn2cccnc12)c1cccc(CC2CCNCC2)c1 | 17.6 µM and 18.9 µM | 39.3 µM and 21.3 µM | IC50 [7]: 41.5 µM; IC50 [8]: 45.6 µM
19 | Cn1cc(NC(=O)N2CCCC2c2cccnc2)ccc1=O (configuration not stated) | 5.84 µM and 5.74 µM | 5.39 µM and 6.42 µM | –
20 | Cl.Fc1ccc(F)c(CN2CCC(c3cc4ncccc4cn3)CC2)c1 | – | 58.4 µM and 43.6 µM | pIC50 [6]: 6.54; IC50 [6]: 505 nM; IC50 [9]: > 100 µM; IC50 [7]: 27.2 µM; IC50 [8]: > 50.1 µM
21 | Cc1cc(=O)n(C)cc1NC(=O)NCc1cccc(F)c1 | 6.8 µM and 6.63 µM | 9.43 µM and 9.23 µM | IC50 [3]: > 50.1 µM
22 | Cc1cc(=O)n(C)cc1NC(=O)Cc1ccc(C(F)(F)F)cc1 | 6.69 µM and 5.43 µM | 5.22 µM and 5.49 µM | –
23 | CCCn1cc(NC(=O)c2cccnc2O)ccc1=O | – | > 100 µM | –
